In US10351561B2, “Pyrazolo[3,4-b]pyridines and imidazo[1,5-b]pyridazines as PDE1 inhibitors” (H. Lundbeck A/S, priority 2016, dated 2019):
Read-outs that look alike come from different tables or passages of the source.

What was measured:
Format in all cases: biochemical
Settings in all cases: 15 nM tritium labelled cAMP, 1 hr at room temperature, SPA beads
PDE1A = PDE1A (Homo sapiens, UniProt P54750); assay: PDE1 inhibition assay (PDE1A), SPA with tritium labelled cAMP
Procedure: (§1) PDE1A, PDE1B and PDE1C assays were performed as follows: the assays were performed in 60 μL samples containing a fixed amount of the PDE1 enzyme (sufficient to convert 20-25% of the cyclic nucleotide substrate), a buffer (50 mM HEPES (4-(2-hydroxyethyl)-1-piperazineethanesulfonic acid) pH 7.6; 10 mM MgCl2; 0.02% Tween20), 0.1 mg/ml BSA (bovine serum albumin), 15 nM tritium labelled cAMP and varying amounts of inhibitors. Reactions were initiated by addition of the cyclic nucleotide substrate, and reactions were allowed to proceed for 1 hr at room temperature before being terminated through mixing with 20 μL (0.2 mg) yttrium silicate SPA beads (PerkinElmer). The beads were allowed to settle for 1 hr in the dark before the plates were counted in a Wallac 1450 Microbeta counter. The measured signals were converted to activity relative to an uninhibited control (100%) and IC50 values were calculated using XIFit (model 205, IDBS).

PDE1B = PDE1B (Homo sapiens, UniProt Q01064); assay: PDE1 inhibition assay (PDE1B), SPA with tritium labelled cAMP
Procedure: Reactions were initiated by addition of the cyclic nucleotide substrate, and reactions were allowed to proceed for 1 hr at room temperature before being terminated through mixing with 20 μL (0.2 mg) yttrium silicate SPA beads (PerkinElmer).

PDE1C = PDE1C (Homo sapiens, UniProt Q14123); assay: PDE1 inhibition assay (PDE1C), SPA with tritium labelled cAMP
Procedure: as §1

PDE1B, sequence (Q01064 whole entry): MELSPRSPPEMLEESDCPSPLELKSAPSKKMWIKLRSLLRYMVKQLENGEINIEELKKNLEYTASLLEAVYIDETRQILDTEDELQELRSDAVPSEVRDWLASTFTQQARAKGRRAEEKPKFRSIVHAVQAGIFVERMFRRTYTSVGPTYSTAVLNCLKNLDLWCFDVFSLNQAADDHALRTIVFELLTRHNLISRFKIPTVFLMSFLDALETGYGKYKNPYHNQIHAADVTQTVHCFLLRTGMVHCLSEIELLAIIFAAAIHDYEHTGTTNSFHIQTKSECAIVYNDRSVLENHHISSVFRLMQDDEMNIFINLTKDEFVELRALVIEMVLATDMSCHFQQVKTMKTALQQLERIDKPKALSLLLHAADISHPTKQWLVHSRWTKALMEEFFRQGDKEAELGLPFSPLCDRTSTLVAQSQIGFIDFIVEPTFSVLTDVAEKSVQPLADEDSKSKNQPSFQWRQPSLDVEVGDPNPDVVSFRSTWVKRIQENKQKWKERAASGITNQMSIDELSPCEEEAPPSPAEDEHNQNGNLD
PDE1C, sequence (Q14123 whole entry): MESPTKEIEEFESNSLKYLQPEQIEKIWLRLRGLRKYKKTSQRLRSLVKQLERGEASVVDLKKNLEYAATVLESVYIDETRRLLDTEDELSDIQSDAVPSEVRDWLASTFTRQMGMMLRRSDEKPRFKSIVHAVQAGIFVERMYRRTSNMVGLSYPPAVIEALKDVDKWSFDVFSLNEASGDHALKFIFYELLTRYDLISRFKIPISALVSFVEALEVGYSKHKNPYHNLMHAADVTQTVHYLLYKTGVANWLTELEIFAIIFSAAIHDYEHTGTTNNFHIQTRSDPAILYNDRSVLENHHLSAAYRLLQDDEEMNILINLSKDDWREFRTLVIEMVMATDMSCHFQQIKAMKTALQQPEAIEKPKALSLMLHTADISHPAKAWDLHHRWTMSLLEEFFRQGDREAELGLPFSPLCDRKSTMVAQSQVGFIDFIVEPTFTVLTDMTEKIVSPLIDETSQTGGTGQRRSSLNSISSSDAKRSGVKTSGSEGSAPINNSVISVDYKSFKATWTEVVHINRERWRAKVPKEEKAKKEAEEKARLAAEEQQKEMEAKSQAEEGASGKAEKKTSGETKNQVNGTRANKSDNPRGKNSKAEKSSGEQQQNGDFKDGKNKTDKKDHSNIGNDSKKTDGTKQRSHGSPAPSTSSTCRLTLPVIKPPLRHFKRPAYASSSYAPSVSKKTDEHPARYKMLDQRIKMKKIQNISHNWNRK
PDE1A, sequence (P54750 whole entry): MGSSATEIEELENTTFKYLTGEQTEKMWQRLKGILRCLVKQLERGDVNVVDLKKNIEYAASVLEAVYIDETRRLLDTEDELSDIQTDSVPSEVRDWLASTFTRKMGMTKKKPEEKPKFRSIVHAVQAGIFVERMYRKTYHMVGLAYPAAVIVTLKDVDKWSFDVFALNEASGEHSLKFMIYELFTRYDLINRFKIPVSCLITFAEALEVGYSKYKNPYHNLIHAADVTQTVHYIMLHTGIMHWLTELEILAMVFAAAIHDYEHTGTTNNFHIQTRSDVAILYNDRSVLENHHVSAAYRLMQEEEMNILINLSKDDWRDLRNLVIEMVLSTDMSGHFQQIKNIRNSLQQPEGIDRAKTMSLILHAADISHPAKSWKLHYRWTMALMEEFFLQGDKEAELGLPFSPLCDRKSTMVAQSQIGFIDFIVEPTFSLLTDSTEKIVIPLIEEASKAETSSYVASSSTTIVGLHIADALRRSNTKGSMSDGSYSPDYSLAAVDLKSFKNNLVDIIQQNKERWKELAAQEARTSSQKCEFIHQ

| SMILES | IC50 (PDE1A) | IC50 (PDE1C) | IC50 (PDE1B; read-out: PDE1B, IC50) | IC50 (PDE1B; PDE1B, IC50 (nM)) |
| --- | --- | --- | --- | --- |
| Cc1coc(-c2cc(NCc3ncn(C)n3)c3c(C(C)C)nn(C)c3n2)n1 [Example 59, 3-isopropyl-1-methyl-N-((1-methyl-1H-1,2,4-triazol-3-yl)methyl)-6-(4-methyloxazol-2-yl)-1H-pyrazolo[3,4-b]pyridin-4-amine] | 99 nM | 67 nM | – | 14 nM |
| CCOc1ncccc1-c1cc(NCc2cccc(OC)n2)c2c(C(C)C)nn(C)c2n1 [Example 41, 6-(2-ethoxy-3-pyridyl)-3-isopropyl-N-[(6-methoxy-2-pyridyl)methyl]-1-methyl-pyrazolo[3,4-b]pyridin-4-amine] | 440 nM | 560 nM | 110 nM | – |
| CCOc1ncccc1-c1cc(NCc2ncn(C)n2)c2c(C(C)C)nn(C)c2n1 [Example 4, 6-(2-ethoxy-3-pyridyl)-3-isopropyl-1-methyl-N-[(1-methyl-1,2,4-triazol-3-yl)methyl]pyrazolo[3,4-b]pyridin-4-amine] | 11 nM | 13 nM | 0.34 nM | – |
| CCOc1ncccc1-c1cc(NCc2nnc(C)o2)c2c(C(C)C)nc(C)n2n1 [Example 45, 2-(2-ethoxy-3-pyridyl)-5-isopropyl-7-methyl-N-[(5-methyl-1,3,4-oxadiazol-2-yl)methyl]imidazo[1,5-b]pyridazin-4-amine] | 42 nM | 37 nM | 7.8 nM | – |
| CC(C)c1nn(C)c2nc(-c3cccs3)cc(NCc3ncn(C)n3)c12 [Example 65, 3-isopropyl-1-methyl-N-[(1-methyl-1,2,4-triazol-3-yl)methyl]-6-(2-thienyl)pyrazolo[3,4-b]pyridin-4-amine] | 31 nM | 46 nM | 5.1 nM | – |
| CCCOc1ncccc1-c1cc(NCc2ncn(C)n2)c2c(C(C)C)nn(C)c2n1 [Example 33, 3-isopropyl-1-methyl-N-[(1-methyl-1,2,4-triazol-3-yl)methyl]-6-(2-propoxy-3-pyridyl)pyrazolo[3,4-b]pyridin-4-amine] | 3.4 nM | 5.2 nM | 0.42 nM | – |
| CCOc1ncccc1-c1cc(NCc2ccccn2)c2c(C(C)C)nc(C)n2n1 [Example 74, 2-(2-ethoxy-3-pyridyl)-5-isopropyl-7-methyl-N-(2-pyridylmethyl)imidazo[1,5-b]pyridazin-4-amine] | 180 nM | 190 nM | 27 nM | – |
| CCOc1ncccc1-c1cc(NCc2ccnc(OC)c2)c2c(C(C)CC)nc(C)n2n1 (single isomer, unassigned; (+)) [Example 53, (+)-2-(2-ethoxy-3-pyridyl)-N-[(2-methoxy-4-pyridyl)methyl]-7-methyl-5-[1-methylpropyl]imidazo[1,5-b]pyridazin-4-amine] | 62 nM | 11 nM | 12 nM | – |
| CCOc1ncccc1-c1cc(NCc2cnn(C)c2)c2c(C(C)CC)nc(C)n2n1 (single isomer, unassigned; (-)) [Example 47, (−)-2-(2-ethoxy-3-pyridyl)-7-methyl-N-[(1-methylpyrazol-4-yl)methyl]-5-[1-methylpropyl]imidazo[1,5-b]pyridazin-4-amine] | 44 nM | 32 nM | 7.5 nM | – |
| CCOc1ncccc1-c1cc(NCc2cc[nH]n2)c2c(C(C)CC)nc(C)n2n1 (single isomer, unassigned; (-)) [Example 52, (−)-2-(2-ethoxy-3-pyridyl)-7-methyl-N-(1H-pyrazol-3-ylmethyl)-5-[1-methylpropyl]imidazo[1,5-b]pyridazin-4-amine] | 12 nM | 6.1 nM | 0.65 nM | – |
| CCOc1ncccc1-c1cc(NCc2nnn(C)n2)c2c(C(C)C)nn(C)c2n1 [Example 20, 6-(2-ethoxy-3-pyridyl)-3-isopropyl-1-methyl-N-[(2-methyltetrazol-5-yl)methyl]pyrazolo[3,4-b]pyridin-4-amine] | 16 nM | 30 nM | 2.8 nM | – |
| CCOc1ncccc1-c1cc(NCc2cccc(C)n2)c2c(C(C)C)nn(C)c2n1 [Example 42, 6-(2-ethoxy-3-pyridyl)-3-isopropyl-1-methyl-N-[(6-methyl-2-pyridyl)methyl]pyrazolo[3,4-b]pyridin-4-amine] | 180 nM | 200 nM | 20 nM | – |
| CCOc1ncccc1-c1cc(NCc2coc(C)n2)c2c(C(C)C)nn(C)c2n1 [Example 2, 6-(2-ethoxy-3-pyridyl)-3-isopropyl-1-methyl-N-[(2-methyloxazol-4-yl)methyl]pyrazolo[3,4-b]pyridin-4-amine] | 81 nM | 99 nM | 15 nM | – |
| CCOc1ncccc1-c1cc(NCc2nnc(C)o2)c2c(C(C)C)nn(C)c2n1 [Example 31, 6-(2-ethoxy-3-pyridyl)-3-isopropyl-1-methyl-N-[(5-methyl-1,3,4-oxadiazol-2-yl)methyl]pyrazolo[3,4-b]pyridin-4-amine] | 110 nM | 110 nM | 16 nM | – |
| CCOc1ncccc1-c1cc(NCc2nc(C)no2)c2c(C(C)C)nc(C)n2n1 [Example 46, 2-(2-ethoxy-3-pyridyl)-5-isopropyl-7-methyl-N-[(3-methyl-1,2,4-oxadiazol-5-yl)methyl]imidazo[1,5-b]pyridazin-4-amine] | 21 nM | 14 nM | 4.1 nM | – |
| Cc1cnc(-c2cc(NCc3ncn(C)n3)c3c(C(C)C)nn(C)c3n2)s1 [Example 62, 3-isopropyl-1-methyl-6-(5-methylthiazol-2-yl)-N-[(1-methyl-1,2,4-triazol-3-yl)methyl]pyrazolo[3,4-b]pyridin-4-amine] | 280 nM | 150 nM | 170 nM | – |
| CCOc1ncccc1-c1cc(NCc2ncccn2)c2c(C(C)C)nc(C)n2n1 [Example 75, 2-(2-ethoxy-3-pyridyl)-5-isopropyl-7-methyl-N-(pyrimidin-2-ylmethyl)imidazo[1,5-b]pyridazin-4-amine] | 11 nM | 24 nM | 0.13 nM | – |
| CCOc1ncccc1-c1cc(NCc2ncn(C)n2)c2c(C(C)CC)nc(C)n2n1 (single isomer, unassigned; (+)) [Example 50, (+)-2-(2-ethoxy-3-pyridyl)-7-methyl-N-[(1-methyl-1,2,4-triazol-3-yl)methyl]-5-[1-methylpropyl]imidazo[1,5-b]pyridazin-4-amine] | 5.6 nM | 2.4 nM | 0.53 nM | – |

Further lines, with some results ahead:

| IC50 (PDE1A) | IC50 (PDE1C) | IC50 (PDE1B; read-out: PDE1B, IC50) | SMILES | IC50 (PDE1B; PDE1B, IC50 (nM)) |
| --- | --- | --- | --- | --- |
| 2.7 nM | 3.8 nM | 0.29 nM | CCCOc1ncccc1-c1cc(NCc2cn(C)cn2)c2c(C(C)C)nn(C)c2n1 [Example 34, 3-isopropyl-1-methyl-N-[(1-methylimidazol-4-yl)methyl]-6-(2-propoxy-3-pyridyl)pyrazolo[3,4-b]pyridin-4-amine] | – |
| 48 nM | 48 nM | 9 nM | CCOc1ncccc1-c1cc(NCc2cccnc2OC)c2c(C(C)C)nc(C)n2n1 [Example 77, 2-(2-ethoxy-3-pyridyl)-5-isopropyl-N-[(2-methoxy-3-pyridyl)methyl]-7-methyl-imidazo[1,5-b]pyridazin-4-amine] | – |
| 24 nM | 25 nM | 5.2 nM | CCOc1nnccc1-c1cc(NCc2cnn(C)c2)c2c(C(C)C)nc(C)n2n1 [Example 69, 2-(3-ethoxypyridazin-4-yl)-5-isopropyl-7-methyl-N-[(1-methylpyrazol-4-yl)methyl]imidazo[1,5-b]pyridazin-4-amine] | – |
| 68 nM | 82 nM | 8.9 nM | CCOc1ncccc1-c1cc(NCc2ccccn2)c2c(C(C)C)nn(C)c2n1 [Example 40, 6-(2-ethoxy-3-pyridyl)-3-isopropyl-1-methyl-N-(2-pyridylmethyl)pyrazolo[3,4-b]pyridin-4-amine] | – |
| 58 nM | 59 nM | 5.5 nM | CCOc1cnccc1-c1cc(NCc2ncn(C)n2)c2c(C(C)C)nn(C)c2n1 [Example 68, 6-(3-ethoxy-4-pyridyl)-3-isopropyl-1-methyl-N-[(1-methyl-1,2,4-triazol-3-yl)methyl]pyrazolo[3,4-b]pyridin-4-amine] | – |
| 6.2 nM | 5.1 nM | 1.5 nM | CCOc1ncccc1-c1cc(NCc2cncc(OC)c2)c2c(C(C)C)nc(C)n2n1 [Example 14, 2-(2-ethoxy-3-pyridyl)-5-isopropyl-N-[(5-methoxy-3-pyridyl)methyl]-7-methyl-imidazo[1,5-b]pyridazin-4-amine] | – |
| 1.4 nM | 1.1 nM | 0.27 nM | CCCOc1ncccc1-c1cc(NCc2ncn(C)n2)c2c(C(C)C)nc(C)n2n1 [Example 72, 5-isopropyl-7-methyl-N-[(1-methyl-1,2,4-triazol-3-yl)methyl]-2-(2-propoxy-3-pyridyl)imidazo[1,5-b]pyridazin-4-amine] | – |
| 17 nM | 16 nM | 1.8 nM | CCOc1ncccc1-c1cc(NCc2cnn(C)c2)c2c(C(C)C)nc(C)n2n1 [Example 22, 2-(2-ethoxy-3-pyridyl)-5-isopropyl-7-methyl-N-[(1-methylpyrazol-4-yl)methyl]imidazo[1,5-b]pyridazin-4-amine] | – |
